Source: US20250319139A1, “METHODS FOR TREATING NEUROINFLAMMATION” (University of Virginia Patent Foundation, priority 2021, published 2025)

What was measured:
IL-17 = assay: ELISA of IL-17 in the serum; type: in vivo, mouse
Procedure: Mice were weighed and anesthetized with isoflurane at 24 h after MCAO. Blood samples were obtained from the right heart after thoracotomy. Blood was centrifuged (13,000 g, 4° C.) after it had been placed at 4° C. for 2 h for the collection of serum. After the collection of blood, mice were perfused with 4° C. saline for brain tissue harvesting. The cerebral cortex (anteroposterior: −1.5 to 2.5 mm, mediolateral: 1.0 to 3.0 mm) was dissected out. All dissection procedures were performed on ice.
IL-10, IL-17, IL-1β and IL-6 in the serum and brain were detected by using ELISA kits (catalog number: M1000B, M1700, MLB00C and D6050, R&D SYSTEM, Inc., Minneapolis, MN, USA) as we described before. The brain tissues were homogenized on ice in the RIPA buffer containing 25 mM Tris-HCl with pH 7.6, 150 mM NaCl, 1% sodium deoxycholate and 0.1% SDS (catalog number: 89901, Thermo Scientific, Rockford, IL, USA) and a protease inhibitor cocktail containing 10 mg/ml aproteinin, 5 mg/ml peptastin, 5 mg/ml leupetin and 1 mM phenylmethane sulfonylfluoride (catalog number: SRE0055, Sigma-Aldrich, St. Louis, MO, USA). The supernatant was collected for ELISA detection after being centrifuged for 20 min (13,000 g, 4° C.) and the protein concentration was determined by the BCA method. Cytokines in the serum and supernatant of brain were detected according to the manufacturer's instruction. The amount of IL-10, IL-17, IL-1β and IL-6 in each sample in the brain was normalized by its protein content.

C57BL/6J mice = assay: Novel object recognition test, old mice; type: in vivo, mouse; conditions: old mice with exercise and surgery; intraperitoneal valeric acid once a week vs normal saline

## CCCCC(=O)O [valeric acid]
IL-17; mice without MCAO, valeric sodium 100 mg/kg intraperitoneal for 7 days
  IL-17 in the blood: increase
IL-17; young mice, 100 mg/kg intraperitoneal 1 h before and 6 h after 120-min MCAO, 24 h after MCAO, vs saline
  IL-17 in the blood: increased
C57BL/6J mice
  performance in novel object recognition test: impaired the performance
